According to patent US5521196A, “5-HT1F agonists for the treatment of migraine” (Eli Lilly and Company, priority 1994, dated 1996):
Counter-ions that a name gives are not always drawn.

Test system: neurogenic inflammation
Test: not given
Conditions: in vivo; cited from earlier work

Compound | block of neurogenic inflammation
CNS(=O)(=O)Cc1ccc2[nH]cc(CCN(C)C)c2c1.O=C(O)CCC(=O)O [Compound I, 3-[2-(dimethylamino)ethyl]-N-methyl-1H-indole-5-methanesulfonamide butane-1,4-dioate (1:1)] | blocked

Test system: cephalic vascular smooth muscle
Test: not given
Conditions: cited from earlier work

Compound | contraction of cephalic vascular smooth muscle
CNS(=O)(=O)Cc1ccc2[nH]cc(CCN(C)C)c2c1.O=C(O)CCC(=O)O [Compound I, 3-[2-(dimethylamino)ethyl]-N-methyl-1H-indole-5-methanesulfonamide butane-1,4-dioate (1:1)] | contract cephalic vascular smooth muscle

Test system: not given
Test: not given
Conditions: in vivo; cited from earlier work

Compound | effectiveness in the treatment of migraine
CNS(=O)(=O)Cc1ccc2[nH]cc(CCN(C)C)c2c1.O=C(O)CCC(=O)O [Compound I, 3-[2-(dimethylamino)ethyl]-N-methyl-1H-indole-5-methanesulfonamide butane-1,4-dioate (1:1)] | effective in the treatment of migraine

Test system: protein extravasation in the dura from stimulation of the trigeminal ganglion
Test: not given
Conditions: iv

Compound | Inhibition of Protein Extravasation, i.v. ID50 [nmol/kg]
CNS(=O)(=O)Cc1ccc2[nH]cc(CCN(C)C)c2c1.O=C(O)CCC(=O)O [Compound I, 3-[2-(dimethylamino)ethyl]-N-methyl-1H-indole-5-methanesulfonamide butane-1,4-dioate (1:1)] | 2.6e-08
CCN(CC)C1CCc2cccc(Cl)c2C1.Cl (centres unmarked) [Compound IV, 8-chloro-2-diethylamino-1,2,3,4-tetrahydronaphthalene hydrochloride] | 1.2e-07

Biological target: T1, 5-HT1F receptor (Homo sapiens, UniProt P30939)
T1 sequence (P30939 1-366): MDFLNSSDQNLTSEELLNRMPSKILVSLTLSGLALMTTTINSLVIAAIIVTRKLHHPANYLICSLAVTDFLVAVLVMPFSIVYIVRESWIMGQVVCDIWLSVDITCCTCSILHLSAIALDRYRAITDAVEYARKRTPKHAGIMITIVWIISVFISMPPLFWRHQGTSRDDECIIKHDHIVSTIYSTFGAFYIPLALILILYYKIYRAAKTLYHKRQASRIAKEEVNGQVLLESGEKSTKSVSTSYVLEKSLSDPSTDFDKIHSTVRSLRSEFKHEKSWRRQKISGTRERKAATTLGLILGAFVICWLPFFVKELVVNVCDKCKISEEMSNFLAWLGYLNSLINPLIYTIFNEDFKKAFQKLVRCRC
Test: biochemical
Conditions: Table I; displacement of 4.5-5.5 nM [3H]5-HT, 37° C., 30 minutes; read-out: 5-HT1F BINDING Ki

Compound | Ki [nM]
Cc1ccccc1-n1cc(CCN2CCC(c3c[nH]c4ccc(Cl)cc34)CC2)cn1 [Example 41, 5-chloro-3-<1-<2-<1-(2-methylphenyl)-1H-pyrazol-4-yl>ethyl>-4-piperidinyl>- 1H-indole oxalate] | 153
Cc1cccc(-n2cc(CCN3CCC(c4c[nH]c5ccc(Cl)cc45)CC3)cn2)c1 [Example 42, 5-chloro-3-<1-<2-<1-(3-methylphenyl)-1H-pyrazol-4-yl>ethyl>-4-piperidinyl>- 1H-indole oxalate] | 43.2
Cc1ccc(-n2cc(CCN3CCC(c4c[nH]c5ccc(Cl)cc45)CC3)cn2)cc1 [Example 43, 5-chloro-3-<1-<2-<1-(4-methylphenyl)-1H-pyrazol-4-yl>ethyl>-4-piperidinyl>- 1H-indole] | 37.7
Fc1ccc2[nH]cc(C3CCN(CCc4cc[nH]c4)CC3)c2c1 [Example 44, 5-fluoro-3-<1-<2-<1H-pyrrol-3-yl>ethyl>-4-piperidinyl>-1H-indole oxalate] | 53.9
CC(C)n1cc(CCN2CC=C(c3c[nH]c4ccc(Cl)cc34)CC2)cn1 [Example 55, 5-chloro-3-<1,2,3,6-tetrahydro-1-<2-<1-(1-ethylmethyl)-1H-pyrazol-4-yl>ethyl>-4-pyridinyl>-1H-indole] | 7.4

Further lines, results first:

Ki [nM] | Compound
27 | Fc1ccc2[nH]cc(C3CCN(CCc4ccccn4)CC3)c2c1 [Example 45, 5-fluoro-3-<1-<2-<pyridin-2-yl>ethyl>-4-piperidinyl>-1H-indoledihydrochloride]
5.3 | Fc1ccc2[nH]cc(C3CCN(CCc4ccncc4)CC3)c2c1 [Example 46, 5-fluoro-3-<1-<2-<pyridin-4-yl>ethyl>-4-piperidinyl>-1H-indoledihydrochloride]
115 | Fc1ccc2[nH]cc(C3CCN(CCc4cccnc4)CC3)c2c1 [Example 47, 5-fluoro-3-<1-<2-<pyridin-3-yl>ethyl>-4-piperidinyl>-1H-indolehydrochloride monohydrate]
8.1 | Fc1ccc2[nH]cc(C3CCN(CCc4cn[nH]c4)CC3)c2c1 [Example 48, 5-fluoro-3-<1-<2-<1H-pyrazol-4-yl>ethyl>-4-piperidinyl>-1H-indoledihydrochloride]
1.4 | Cn1cc(CCN2CCC(c3c[nH]c4ccc(O)cc34)CC2)cn1 [Example 49, 5-hydroxy-3-<1-<2-<1-methyl-1H-pyrazol-4-yl>ethyl>-4-piperidinyl>-1H-indoleoxalate]
2.3 | CC(C)n1cc(CCN2CCC(c3c[nH]c4ccc(O)cc34)CC2)cn1 [Example 50, 5-hydroxy-3-<1-<2-<1-(1-methylethyl)-1H-pyrazol-4-yl>ethyl>-4-piperidinyl>-1H-indole]
4.4 | Oc1ccc2[nH]cc(C3CCN(CCc4cnn(C5CCCCC5)c4)CC3)c2c1 [Example 51, 5-hydroxy-3-<1-<2-<1-cyclohexyl-1H-pyrazol-4-yl>ethyl>-4-piperidinyl>-1H-indole oxalate]
2.4 | Oc1ccc2[nH]cc(C3CCN(CCc4cnn(-c5ccccc5)c4)CC3)c2c1 [Example 52, 5-hydroxy-3-<1-<2-<1-phenyl-1H-pyrazol-4-yl>ethyl>-4-piperidinyl>-1H-indole]
1.1 | CCCn1cc(CCN2CCC(c3c[nH]c4ccc(O)cc34)CC2)cn1 [Example 53, 5-hydroxy-3-<1-<2-<1-propyl-1H-pyrazol-4-yl>ethyl>-4-piperidinyl>-1H-indole]
42 | Clc1ccc2[nH]cc(C3CCN(CCCc4cn[nH]c4)CC3)c2c1 [Example 54, 5-chloro-3-<1-<3-<1H-pyrazol-4-yl>propyl>-4-piperidinyl>-1H-indole oxalate]
